How the values were obtained:
[1] = target: CDK2/cyclin E (Homo sapiens, UniProt P24941); assay: Assay of kinase activity (ADP-Glo); format: biochemical; conditions: kinase inhibitory activity, read-out: CDK2/E1 IC50
Summary of the method: (§1)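 Kinase preincubated 10 min with compound in 50 mM Hepes, 10 mM MgCl2, 0.01% Brij35, 2 mM DTT, then substrate/ATP added for 60 min at 25 °C. ADP formed measured by ADP-Glo luminescence; IC50 by nonlinear concentration-response fitting.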

[2] = target: CDK4/cyclin D1 (Homo sapiens, UniProt P11802); assay: Assay of kinase activity (ADP-Glo); format: biochemical; conditions: kinase inhibitory activity
Summary of the method: as §1

[3] = target: CDK6/cyclin D3 (Homo sapiens, UniProt Q00534); assay: Assay of kinase activity (ADP-Glo); format: biochemical; conditions: kinase inhibitory activity
Summary of the method: (§2)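 ADP production quantified by luminescence after 60 min kinase reaction at 25 °C, started with substrate/ATP following 10 min enzyme-compound preincubation. Buffer: 50 mM Hepes, 10 mM MgCl2, 0.01% Brij35, 2 mM DTT. IC50 obtained by nonlinear curve fitting of inhibition data.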

[4] = target: CDK9/cyclin T1 (Homo sapiens, UniProt P50750); assay: Assay of kinase activity (ADP-Glo); format: biochemical; conditions: kinase inhibitory activity
Summary of the method: as §2

[5] = tested on: human acute myeloid leukemia MV-4-11 cells; assay: Assay of cell proliferation (CellTiter-Glo); format: cell-based; conditions: MV4-11, 144 h, 6 days, read-out: MV-4-11 IC50 of cell proliferation inhibitory activity
Summary of the method: (§3)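 Cells seeded per line at growth-adapted densities, treated 6 days at 37 °C/5% CO2 with nine 3-fold dilutions (10 µM to 0.1 nM final, 0.5% DMSO). Viability by CellTiter-Glo luminescence; IC50 from four-parameter fit.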

[6] = tested on: human breast cancer HCC1806 cells; assay: Assay of cell proliferation (CellTiter-Glo); format: cell-based; conditions: Homo sapiens, 144 h, 6 days, read-out: HCC1806 IC50 of cell proliferation inhibitory activity
Summary of the method: as §3

[7] = tested on: human breast cancer MCF-7 cells; assay: Assay of cell proliferation (CellTiter-Glo); format: cell-based; conditions: 144 h, MCF7 cells, 6 days, read-out: MCF7 IC50 of cell proliferation inhibitory activity
Summary of the method: as §3

[8] = tested on: human colon cancer HCT-116 cells; assay: Assay of cell proliferation (CellTiter-Glo); format: cell-based; conditions: 144 h, 6 days, read-out: HCT-116 IC50 of cell proliferation inhibitory activity
Summary of the method: as §3

[9] = tested on: human gastric cancer MKN1 cells; assay: Assay of cell proliferation (CellTiter-Glo); format: cell-based; conditions: Homo sapiens, MKN-1, 144 h; MNK1, 6 days; read-out: MKN1 IC50 of cell proliferation inhibitory activity
Summary of the method: as §3

[10] = tested on: Human ovarian cancer OVCAR3 cells; assay: Assay of cell proliferation (CellTiter-Glo); format: cell-based; conditions: Homo sapiens, OVCAR-3, 144 h, 6 days, read-out: OVCAR3 IC50 of cell proliferation inhibitory activity
Summary of the method: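 OVCAR3 cells, 2000/well in RPMI 1640 with 20% FBS, treated with nine 3-fold dilutions from 10 µM to 0.1 nM (0.5% DMSO) for 6 days at 37 °C. Viability by CellTiter-Glo luminescence; IC50 by four-parameter fit.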

Sequence of CDK9/cyclin T1 (P50750 whole entry, species assumed): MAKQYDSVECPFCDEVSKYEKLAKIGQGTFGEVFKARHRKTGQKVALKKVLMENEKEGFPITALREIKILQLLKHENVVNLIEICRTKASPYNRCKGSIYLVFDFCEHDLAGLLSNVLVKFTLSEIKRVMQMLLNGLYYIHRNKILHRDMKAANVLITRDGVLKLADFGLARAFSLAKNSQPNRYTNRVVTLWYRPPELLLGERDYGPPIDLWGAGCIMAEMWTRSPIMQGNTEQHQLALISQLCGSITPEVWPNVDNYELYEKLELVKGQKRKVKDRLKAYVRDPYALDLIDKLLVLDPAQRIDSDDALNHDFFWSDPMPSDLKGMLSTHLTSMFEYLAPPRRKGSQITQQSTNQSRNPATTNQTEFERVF
Sequence of CDK9/cyclin T1 (O60563 whole entry partner, species assumed): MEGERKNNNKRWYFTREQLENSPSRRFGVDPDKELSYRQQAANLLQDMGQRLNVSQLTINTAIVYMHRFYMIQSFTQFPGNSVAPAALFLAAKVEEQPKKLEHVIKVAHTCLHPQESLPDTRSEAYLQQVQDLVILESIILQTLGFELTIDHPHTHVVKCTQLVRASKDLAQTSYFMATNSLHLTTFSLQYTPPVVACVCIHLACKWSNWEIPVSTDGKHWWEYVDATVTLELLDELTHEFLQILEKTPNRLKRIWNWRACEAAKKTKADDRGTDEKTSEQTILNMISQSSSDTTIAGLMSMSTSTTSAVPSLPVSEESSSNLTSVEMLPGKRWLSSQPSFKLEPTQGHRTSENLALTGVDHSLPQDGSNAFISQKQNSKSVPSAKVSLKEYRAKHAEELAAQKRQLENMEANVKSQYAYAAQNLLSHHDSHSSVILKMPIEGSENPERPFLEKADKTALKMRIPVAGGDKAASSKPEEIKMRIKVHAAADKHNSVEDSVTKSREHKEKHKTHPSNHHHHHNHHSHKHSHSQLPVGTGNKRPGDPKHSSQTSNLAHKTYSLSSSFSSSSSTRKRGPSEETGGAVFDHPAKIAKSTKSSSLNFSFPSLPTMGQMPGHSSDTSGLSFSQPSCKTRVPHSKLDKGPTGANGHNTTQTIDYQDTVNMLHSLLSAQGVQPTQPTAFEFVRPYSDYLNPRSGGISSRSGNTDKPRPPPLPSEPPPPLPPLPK
Sequence of CDK6/cyclin D3 (Q00534 whole entry, species assumed): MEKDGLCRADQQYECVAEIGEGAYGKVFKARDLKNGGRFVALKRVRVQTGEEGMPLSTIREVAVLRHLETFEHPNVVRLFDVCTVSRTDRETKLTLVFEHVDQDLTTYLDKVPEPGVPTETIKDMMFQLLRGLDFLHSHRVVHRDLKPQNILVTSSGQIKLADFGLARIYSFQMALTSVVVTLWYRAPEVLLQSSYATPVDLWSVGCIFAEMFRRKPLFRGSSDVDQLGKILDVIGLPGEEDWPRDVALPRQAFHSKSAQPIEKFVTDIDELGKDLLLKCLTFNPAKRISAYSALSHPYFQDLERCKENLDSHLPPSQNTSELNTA
Sequence of CDK6/cyclin D3 (P30281 whole entry partner, species assumed): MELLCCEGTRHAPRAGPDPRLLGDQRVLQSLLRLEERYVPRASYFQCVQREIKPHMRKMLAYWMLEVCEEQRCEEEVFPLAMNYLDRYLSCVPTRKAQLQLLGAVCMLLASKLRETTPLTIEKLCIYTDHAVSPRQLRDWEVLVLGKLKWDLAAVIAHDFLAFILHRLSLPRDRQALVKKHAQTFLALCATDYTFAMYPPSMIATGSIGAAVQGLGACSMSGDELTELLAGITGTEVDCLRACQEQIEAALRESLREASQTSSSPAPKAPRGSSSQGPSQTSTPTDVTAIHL
Sequence of CDK4/cyclin D1 (P11802 whole entry, species assumed): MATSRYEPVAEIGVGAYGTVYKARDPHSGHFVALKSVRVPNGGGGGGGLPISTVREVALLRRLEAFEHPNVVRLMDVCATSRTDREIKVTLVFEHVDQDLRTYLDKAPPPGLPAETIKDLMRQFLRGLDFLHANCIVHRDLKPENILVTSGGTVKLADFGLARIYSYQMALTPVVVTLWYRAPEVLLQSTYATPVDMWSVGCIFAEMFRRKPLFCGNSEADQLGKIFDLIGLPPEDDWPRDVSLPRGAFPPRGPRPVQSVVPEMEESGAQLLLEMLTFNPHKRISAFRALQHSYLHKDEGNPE
Sequence of CDK4/cyclin D1 (P24385 whole entry partner, species assumed): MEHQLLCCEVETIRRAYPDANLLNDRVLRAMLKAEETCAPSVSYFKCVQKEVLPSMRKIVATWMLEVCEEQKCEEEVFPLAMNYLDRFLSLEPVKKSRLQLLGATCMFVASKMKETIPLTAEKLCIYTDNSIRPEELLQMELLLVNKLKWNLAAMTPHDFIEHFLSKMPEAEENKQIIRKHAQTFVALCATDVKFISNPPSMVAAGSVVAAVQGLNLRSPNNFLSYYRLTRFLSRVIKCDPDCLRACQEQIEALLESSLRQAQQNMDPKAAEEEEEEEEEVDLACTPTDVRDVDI

IC50 [1]	IC50 [2]	IC50 [3]	IC50 [4]	IC50 [5]	IC50 [6]	IC50 [7]	IC50 [8]	IC50 [9]	IC50 [10]	SMILES
0.7 nM	2 nM	12 nM	6 nM	16 nM	233 nM	162 nM	95 nM	21 nM	224 nM	CC(C)n1nnc2ccc3cnc(Nc4ccc(C(=O)N5CCOCC5)cc4)nc3c21 [Example I-35, (4-((1-Isopropyl-1H-[1,2,3]triazolo[4,5-H]quinazolin-8-yl)amino)phenyl)(morpholino)methanone]
0.1 nM	0.8 nM	3 nM	3 nM	5 nM	20 nM	8 nM	11 nM	16 nM	14 nM	CN[C@@H]1CCN(C(=O)c2ccc(Nc3ncc4ccc5nnn(C(C)C)c5c4n3)cc2)C1 [Example I-7, (R)-(4-((1-Isopropyl-1H-[1,2,3]triazolo[4,5-H]quinazolin-8-yl)amino)phenyl)(3-(methylamino)pyrrolidin-1-yl)methanone]
